Source: US10676436B2, “NLRX1 ligands” (Landos Biopharma, Inc., priority 2018, dated 2020)

Key:
CD4+ T cells = experiment: Immunological screening in vitro in CD4+ splenocytes, flow cytometry; assay type: cell-based, C57BL/6 mice; conditions: for proportion of IFNγ producing (IFNγ+) CD4+ T cells / proportion of TNFα producing (TNFα+) CD4+ T cells: wild-type cells, 48 h, PMA and ionomycin; for size and dose dependence of the effect on TNFα producing and IFNγ producing cells: within the range tested
Source text: Spleens were excised from C57BL/6 mice. Spleens were crushed between the frosted ends of microscope slides and filtered to provide a cellular suspension. Red blood cells were lysed through hypotonic lysis. Remaining cells were washed and filtered. CD4+ T cells were enriched within the suspension using magnetic sorting based negative selection. Cells were collected and plated within 96 well plates coated with anti-CD3 and cultured in the presence of NX-13, NX-37, NX-43, NX-44, or NX-50 at 0, 0.1, 1 or 10 micromolar; NX-53, NX-54, NX-55, or NX-56 at 0, 0.1, or 1 micromolar; or NX-45 at 10, 50 or 100 nanomolar for 48 h. During the last 6 h of culture, cells were stimulated with phorbol 12-myristate-13-acetate (PMA) and ionomycin.
Cells were collected from 96 well plates and stained with a cocktail of antibodies for immunophenotyping by flow cytometry. Culture supernatant was collected and assayed for cytokine concentrations by cytometric bead array. Data was captured on a BD FACS Celesta and analyzed using FacsDiva.

[1] = molecular target: T1, NLRX1 (C terminus, pdb: 3UN9) (Homo sapiens, UniProt Q86UT6); conditions: low affinity NLRX1 ligand, published value; cited from earlier work
T1 construct: the published structure for the C terminus of NLRX1 (pdb: 3UN9)

Human NLRX1 (NLRX1-WT) = molecular target: T2, Human NLRX1 (NLRX1-WT) (Homo sapiens, UniProt Q86UT6); experiment: Surface plasmon resonance binding to NLRX1-WT
T2 construct: made in house; host or cells: Pichia pastoris
Experimental: (§1) NLRX1 production and purification. Human NLRX1 (www.uniprot.org; UniProtKB—Q86UT6 (NLRX1 HUMAN)) was cloned into E. coli, amplified and transfected in Pichia pastoris. P. pastoris was plated onto adenine selective media. Stable transfected colonies were selected and grown within YPD broth at 30° C. for 24 hours, 240 RPM shaking. Starter culture was used to inoculate base media (1% yeast extract, 2% peptone, 1% sorbitol, 2% yeast nitrogen base) containing biotin and buffered with potassium phosphate. Inoculated base media was incubated for 48 hours at 30° C., 240 RPM. P. pastoris was then pelleted by centrifugation and resuspended in expression media (1% sorbitol, 2% yeast nitrogen base) containing biotin and buffered with potassium phosphate. Culture was induced daily for protein production through addition of methanol and incubated for a total of 4 days at 28° C., 240 RPM. After incubation, cells were pelleted by centrifugation and lysed by sonication. Recombinant NLRX1 protein was purified by fast protein liquid chromatography (AktaPrime) using immobilized metal affinity chromatography. Fractions of protein were eluted in 1 mL aliquots and evaluated for NLRX1 content. A mutated NLRX1 protein was generated using similar methods to disrupt binding within the predicted binding site through altering four residues to alanine (D677A, F680A, F681A, and E684A).
(§2) A Biacore T200 was used to evaluate binding to the NLRX1 protein. NLRX1-WT and NLRX1-Mutant were used as proteins to immobilize onto the CM5 sensor chip. NLRX1-WT was diluted in 10 mM sodium acetate buffer at pH 4.0 and immobilized onto the flow cell to a level of ˜3700 RU, using standard amine coupling chemistry. NLRX1-Mutant was diluted in 10 mM sodium acetate buffer at pH 4.0 and immobilized onto the flow cell to a level of ˜3100 RU, using standard amine coupling chemistry. 20 mM MOPS, 150 mM NaCl, 5 mM sodium acetate, 1 mM EDTA, 0.05% Tween-20, pH 8.0 buffer (Running buffer) was used as the immobilization running buffer. Based on the immobilized response values, theoretical Rmax values were calculated. The Rmax values assume 1:1 interaction mechanism. Overnight kinetics were performed for all analytes binding to the immobilized proteins. The kinetics experiments were performed in the μL/min. presence of running buffer+1% DMSO. The flow rate of all solutions was maintained at 50 Analyte concentrations were 0 μM, 2.5 μM, 5 μM 10 μM 20 μM and 40 μM.

[2] = molecular target: T3, mutated NLRX1 protein (D677A, F680A, F681A, E684A) (Homo sapiens, UniProt Q86UT6, D677A/E684A/F680A/F681A); experiment: Surface plasmon resonance binding to NLRX1-Mutant
T3 construct: made in house; host or cells: Pichia pastoris (by 'similar methods')
Experimental: as §1
as §2, with “The Rmax values assume 1:1 interaction mechanism. Overnight kinetics were performed for all analytes binding to the immobilized proteins. The kinetics experiments were performed in the μL/min. presence of running buffer+1% DMSO. The flow rate of all solutions was maintained at 50 Analyte concentrations were 0 μM, 2.5 μM, 5 μM 10 μM 20 μM and 40 μM.” left out

CT26 carcinoma cells = experiment: CT26 injected solid tumor model; assay type: in vivo, BALB/c mice
Experimental: (§3) Adult BALB/c mice were injected with 5×10^6 CT26 carcinoma cells subcutaneously in the hind flank. Mice were treated daily with NX-43 at 40 mg/kg via gavage beginning on day 9. Mice were weighed daily, and tumor diameter was measured every 3 days up to day 21. Tumors were collected at weighed at necropsy. A second mouse model was used. APC^min/+ mice were administered DSS in drinking water beginning at 5 weeks of age. Mice were challenged with DSS for a total of 5 days prior to return of standard drinking water. After DSS, mice were treated with NX-43 (40 mg/kg) by oral gavage for four weeks. After four weeks, colons were excised and washed. Number of polyps were counted, and colon weights were obtained.
Total RNA from tumors and lymph nodes can be generated using the Qiagen RNeasy mini kit. cDNA can be generated using the BioRad iScript cDNA synthesis kit. Standard curves can be generated by serial dilution of purified product from a standard PCR reaction with Taq DNA polymerase followed by purification using the Qiagen MinElute PCR purification kit. Expression levels can be obtained from quantitative real-time PCR with SybrGreen supermix on a BioRad CFX96 Thermal cycler followed by normalization to expression of β-actin. Gene expression can be measured for genes marking immune activation such as inflammatory cytokines or surface receptors, immune suppression such as CTLA-4, PD-1, or ARG-1, and tumor growth and metastasis.
H&E stained tumor and lymph node sections can be prepared from tissue collected into 10% buffered formalin and embedded in paraffin. Slides can be examined by a board-certified veterinary pathologist via an Olympus microscope and images will be collected with Image-Pro software. Samples can be scored and evaluated for presence of tumor infiltrating leukocytes, areas of necrosis and proportion of proliferating tumor cells.
Tumors and lymph nodes can be collected into RPMI/FBS buffer containing collagenase (300 U/mL) and DNase (50 U/mL) for digestion. Tissues can be digested for 60 minutes under stirring at 37° C. […]

[3] = tested on: APC^min/+ model of colorectal cancer; experiment: APCmin/+ model of colorectal cancer; assay type: in vivo, mice; conditions: 40 mg/kg oral, four weeks
Experimental: as §3

[4] = tested at 10, 50 and 100 nanomolar

T2 sequence (Q86UT6 87-975): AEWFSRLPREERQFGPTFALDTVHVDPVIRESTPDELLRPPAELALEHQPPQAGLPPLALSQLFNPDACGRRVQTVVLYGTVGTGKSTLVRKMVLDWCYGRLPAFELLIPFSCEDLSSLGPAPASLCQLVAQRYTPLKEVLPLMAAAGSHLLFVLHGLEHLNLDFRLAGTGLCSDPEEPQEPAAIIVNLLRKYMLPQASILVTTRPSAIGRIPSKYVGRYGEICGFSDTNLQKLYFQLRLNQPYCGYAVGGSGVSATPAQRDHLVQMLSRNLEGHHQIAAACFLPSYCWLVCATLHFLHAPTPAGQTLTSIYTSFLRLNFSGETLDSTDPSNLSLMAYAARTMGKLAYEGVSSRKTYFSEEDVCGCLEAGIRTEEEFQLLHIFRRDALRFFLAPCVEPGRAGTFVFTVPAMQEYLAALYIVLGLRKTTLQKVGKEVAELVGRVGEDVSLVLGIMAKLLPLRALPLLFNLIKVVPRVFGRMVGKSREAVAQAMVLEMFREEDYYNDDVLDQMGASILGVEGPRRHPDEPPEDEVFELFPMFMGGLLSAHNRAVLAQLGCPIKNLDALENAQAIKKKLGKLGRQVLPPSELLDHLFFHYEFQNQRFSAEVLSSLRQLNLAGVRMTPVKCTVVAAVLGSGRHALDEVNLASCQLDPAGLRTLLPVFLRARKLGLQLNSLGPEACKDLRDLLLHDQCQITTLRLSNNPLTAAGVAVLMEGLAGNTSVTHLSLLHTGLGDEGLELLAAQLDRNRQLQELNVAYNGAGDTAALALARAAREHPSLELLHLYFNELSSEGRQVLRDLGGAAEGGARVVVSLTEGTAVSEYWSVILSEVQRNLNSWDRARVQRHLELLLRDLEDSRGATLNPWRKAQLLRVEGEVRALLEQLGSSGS
T3 sequence (Q86UT6 87-975 D677A/F680A/F681A/E684A): as the sequence (Q86UT6 87-975) above, with D591A, F594A, F595A, E598A counted along it
T1 sequence (Q86UT6 629-975 limits assumed): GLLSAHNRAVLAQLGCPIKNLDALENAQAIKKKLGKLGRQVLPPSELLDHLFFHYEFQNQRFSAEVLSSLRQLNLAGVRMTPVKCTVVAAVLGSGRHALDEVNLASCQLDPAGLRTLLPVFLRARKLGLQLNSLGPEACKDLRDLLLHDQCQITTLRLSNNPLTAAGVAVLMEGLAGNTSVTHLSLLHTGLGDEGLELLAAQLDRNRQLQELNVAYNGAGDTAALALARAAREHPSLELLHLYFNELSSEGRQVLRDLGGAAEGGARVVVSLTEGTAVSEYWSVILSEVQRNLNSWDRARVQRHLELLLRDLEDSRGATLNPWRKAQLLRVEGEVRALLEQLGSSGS

Row | Compound | proportion of IFNγ producing (IFNγ+) CD4+ T cells (CD4+ T cells) | function at NLRX1 concluded from the cytokine results (CD4+ T cells) | proportion of TNFα producing (TNFα+) CD4+ T cells (CD4+ T cells) | other results
1 | Cc1cccc(Oc2cc(Oc3ccccn3)cc(Oc3cccc(C)n3)c2)n1 [NX-54, 2,2′-(5-(pyridin-2-yloxy)-1,3-phenylene)bis(oxy)bis(6-methylpyridine)] | minimal effects at high concentrations |  |  | 
2 | Cc1cccc(Oc2cc(Oc3cccc(C)n3)cc(Oc3ccccc3C)c2)n1 [NX-55, 2,2′-(5-(6-methylphenoxy)-1,3-phenylene)bis(oxy)bis(6-methylpyridine)] | only a small decrease |  |  | 
3 | CCCC\C=C/C=C/C=C\CCCCCCCC(=O)O [punicic acid] |  |  |  | published binding affinity to NLRX1 [1]: -6.2 kcal/mol
4 | Cc1cccc(Oc2cc(Oc3cccc(C)n3)cc(Oc3nc(C)cc(C)n3)c2)n1 [NX-37, 2-(3,5-bis(6-methylpyridin-2-yloxy)phenoxy)-4,6-dimethylpyrimidine] | increased | specific inhibitors of NLRX1 | increased | binding to NLRX1 by surface plasmon resonance (in words) (Human NLRX1 (NLRX1-WT)): bind to NLRX1; binding to the mutated NLRX1 protein [2]: Loss of binding; change in IL-10 producing cells (CD4+ T cells): Neither small molecule elicited a change; size and dose dependence of the effect on TNFα producing and IFNγ producing cells (CD4+ T cells): dose-dependent effects
5 | Cc1cccc(Oc2cc(Oc3cccc(C)n3)cc(Oc3ccccc3O)c2)n1 [NX-56, 2,2′-(5-(phen-6-ol)oxy-1,3-phenylene)bis(oxy)bis(6-methylpyridine)] | weakly increased |  |  | 
6 | Cc1cccnc1Oc1cc(Oc2ccccc2)cc(Oc2ncccc2C)c1 [NX-43, 2,2′-(5-phenoxy-1,3-phenylene)bis(oxy)bis(3-methylpyridine)] | increased | specific inhibitors of NLRX1 | increased | binding to NLRX1 by surface plasmon resonance (in words) (Human NLRX1 (NLRX1-WT)): bind to NLRX1; binding to the mutated NLRX1 protein [2]: Loss of binding; change in IL-10 producing cells (CD4+ T cells): Neither small molecule elicited a change; size and dose dependence of the effect on TNFα producing and IFNγ producing cells (CD4+ T cells): greater effect than NX-37; time after initiation of treatment at which reduction in tumor diameter was observed (CT26 carcinoma cells; 40 mg/kg daily via gavage): less than 10 days; tumor size relative to untreated controls (CT26 carcinoma cells; 40 mg/kg daily via gavage beginning on day 9): reduce; reduction of overall tumor mass (CT26 carcinoma cells; after 12 days of treatment, 40 mg/kg): over 70%; overall tumor burden (as evidenced by the colon weight) [3]: reduced; number of colonic polyps ([3]; post-inflammation treatment): reduced
7 | Cc1cccc(Oc2cc(Oc3ccccc3)cc(Oc3cccc(C)n3)c2)n1 [NX-53, 2,2′-(5-phenoxy-1,3-phenylene)bis(oxy)bis(6-methylpyridine)] | weakly increased |  |  | 
8 | Cc1cc(N)cnc1Oc1cc(Oc2ncc(N)cc2C)cc(Oc2ncc(N)cc2C)c1 [NX-45, 6,6′,6″-(benzene-1,3,5-triyltris(oxy))tris(5-methylpyridin-3-amine)] | reduces | activators of NLRX1 | reduces | concentrations at which the significant reduction in IFNγ+ cells occurs (CD4+ T cells; [4]): ≥ 50 nM; concentrations at which the significant reduction in TNFα+ cells occurs (CD4+ T cells; [4]): ≥ 10 nM
9 | Cc1cc(O)cnc1Oc1cc(Oc2ccccc2)cc(Oc2ncc(O)cc2C)c1 [NX-44, 6,6′-(5-phenoxy-1,3-phenylene)bis(oxy)bis(5-methyl-3-pyridinol)] | increased | specific inhibitors of NLRX1 | increased | 
10 | Cc1cccnc1Oc1cc(Oc2ncccc2C)cc(Oc2ncccc2C)c1 [NX-50, 1,3,5-tris (3-methylpyridin-2-yloxy)benzene] | decreased | activators of NLRX1 | decreased | 
